pIC50: −log10 of the molar value. Where a name gives a salt, the structure may show the parent alone.
Legend:
Type in all cases: cell-based
human TLR8 = target: T1, human TLR8 (Homo sapiens, UniProt Q9NR97); assay: TLR8 inhibition reporter assay (HEK-Blue cells, SEAP reporter, R848 stimulation); details: HEK-Blue cells overexpressing human TLR8, SEAP reporter, R848 15.9 μM; read-out: TLR8 IC50
T1 construct: host or cells: HEK-Blue cells
T1 sequence (Q9NR97 27-1041): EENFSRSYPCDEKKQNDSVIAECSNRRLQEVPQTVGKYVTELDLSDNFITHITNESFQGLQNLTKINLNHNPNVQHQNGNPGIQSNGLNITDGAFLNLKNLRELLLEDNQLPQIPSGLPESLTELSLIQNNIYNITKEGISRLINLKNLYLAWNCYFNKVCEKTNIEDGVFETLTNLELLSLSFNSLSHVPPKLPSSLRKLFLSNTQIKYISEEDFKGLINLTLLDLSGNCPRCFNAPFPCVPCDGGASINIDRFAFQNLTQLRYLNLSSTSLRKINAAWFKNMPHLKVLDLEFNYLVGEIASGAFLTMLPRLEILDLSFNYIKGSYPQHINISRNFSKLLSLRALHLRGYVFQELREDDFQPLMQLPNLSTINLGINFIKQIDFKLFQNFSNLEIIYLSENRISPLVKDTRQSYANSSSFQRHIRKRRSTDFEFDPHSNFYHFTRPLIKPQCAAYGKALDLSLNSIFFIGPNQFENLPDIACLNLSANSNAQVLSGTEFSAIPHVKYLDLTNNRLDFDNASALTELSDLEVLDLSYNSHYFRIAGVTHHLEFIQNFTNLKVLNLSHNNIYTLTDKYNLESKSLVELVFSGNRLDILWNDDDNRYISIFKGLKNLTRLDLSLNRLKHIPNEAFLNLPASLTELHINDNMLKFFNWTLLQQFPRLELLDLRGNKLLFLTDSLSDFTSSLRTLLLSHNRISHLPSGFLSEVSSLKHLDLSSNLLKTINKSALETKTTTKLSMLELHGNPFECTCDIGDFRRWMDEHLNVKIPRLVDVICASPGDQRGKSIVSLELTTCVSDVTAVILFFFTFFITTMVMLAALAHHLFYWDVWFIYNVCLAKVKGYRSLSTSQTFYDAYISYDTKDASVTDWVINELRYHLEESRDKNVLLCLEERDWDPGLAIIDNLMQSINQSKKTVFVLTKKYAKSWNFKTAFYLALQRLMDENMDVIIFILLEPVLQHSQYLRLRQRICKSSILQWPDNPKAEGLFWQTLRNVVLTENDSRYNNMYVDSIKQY
Method in brief: (§1)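 Compound treatment: 30 min, RT, 0.05 nM–50 μM final. Agonist: TLR7 gardiquimod 7.5 μM; TLR8 R848 15.9 μM; TLR9 ODN2006 5 nM. Incubation 22 h, 37 °C, 5% CO2. Readout SEAP, HEK-Blue Detection.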

human TLR7 = target: T2, human TLR7 (Homo sapiens, UniProt Q9NYK1); assay: TLR7 inhibition reporter assay (HEK-Blue cells, SEAP reporter, gardiquimod stimulation); details: HEK-Blue cells overexpressing human TLR7, SEAP reporter, gardiquimod 7.5 μM; read-out: TLR7 IC50
T2 construct: host or cells: HEK-Blue cells
T2 sequence (Q9NYK1 27-1049): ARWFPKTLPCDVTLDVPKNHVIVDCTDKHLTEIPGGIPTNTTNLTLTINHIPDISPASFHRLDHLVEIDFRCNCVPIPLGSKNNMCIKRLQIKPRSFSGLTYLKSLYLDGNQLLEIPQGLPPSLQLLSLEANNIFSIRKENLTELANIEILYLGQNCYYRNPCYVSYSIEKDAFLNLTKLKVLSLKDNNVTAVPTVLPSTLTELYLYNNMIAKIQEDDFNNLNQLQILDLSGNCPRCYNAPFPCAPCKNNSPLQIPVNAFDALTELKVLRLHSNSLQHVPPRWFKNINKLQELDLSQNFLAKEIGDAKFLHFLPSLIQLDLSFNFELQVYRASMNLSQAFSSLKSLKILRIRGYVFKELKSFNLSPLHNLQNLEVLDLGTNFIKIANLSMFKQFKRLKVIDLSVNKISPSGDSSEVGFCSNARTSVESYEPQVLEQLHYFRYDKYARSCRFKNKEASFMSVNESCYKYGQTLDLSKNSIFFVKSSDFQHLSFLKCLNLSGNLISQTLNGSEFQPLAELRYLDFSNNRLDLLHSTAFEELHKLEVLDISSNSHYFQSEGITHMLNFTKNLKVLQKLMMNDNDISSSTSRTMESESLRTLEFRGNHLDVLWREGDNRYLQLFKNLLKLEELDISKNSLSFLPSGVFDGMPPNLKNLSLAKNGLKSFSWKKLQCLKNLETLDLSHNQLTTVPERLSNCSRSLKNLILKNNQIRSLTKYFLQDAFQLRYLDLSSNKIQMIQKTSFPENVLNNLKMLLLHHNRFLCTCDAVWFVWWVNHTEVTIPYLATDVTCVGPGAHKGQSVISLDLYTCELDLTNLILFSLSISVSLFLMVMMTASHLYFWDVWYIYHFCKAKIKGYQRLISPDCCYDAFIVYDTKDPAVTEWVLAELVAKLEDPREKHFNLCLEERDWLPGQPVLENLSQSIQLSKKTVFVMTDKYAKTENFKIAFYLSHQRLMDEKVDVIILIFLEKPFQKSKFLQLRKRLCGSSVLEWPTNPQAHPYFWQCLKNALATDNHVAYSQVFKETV
Method in brief: as §1

human TLR9 = target: T3, human TLR9 (Homo sapiens, UniProt Q9NR96); assay: TLR9 inhibition reporter assay (HEK-Blue cells, SEAP reporter, ODN2006 stimulation); details: HEK-Blue cells overexpressing human TLR9, SEAP reporter, ODN2006 5 nM
T3 construct: host or cells: HEK-Blue cells
T3 sequence (Q9NR96 26-1032): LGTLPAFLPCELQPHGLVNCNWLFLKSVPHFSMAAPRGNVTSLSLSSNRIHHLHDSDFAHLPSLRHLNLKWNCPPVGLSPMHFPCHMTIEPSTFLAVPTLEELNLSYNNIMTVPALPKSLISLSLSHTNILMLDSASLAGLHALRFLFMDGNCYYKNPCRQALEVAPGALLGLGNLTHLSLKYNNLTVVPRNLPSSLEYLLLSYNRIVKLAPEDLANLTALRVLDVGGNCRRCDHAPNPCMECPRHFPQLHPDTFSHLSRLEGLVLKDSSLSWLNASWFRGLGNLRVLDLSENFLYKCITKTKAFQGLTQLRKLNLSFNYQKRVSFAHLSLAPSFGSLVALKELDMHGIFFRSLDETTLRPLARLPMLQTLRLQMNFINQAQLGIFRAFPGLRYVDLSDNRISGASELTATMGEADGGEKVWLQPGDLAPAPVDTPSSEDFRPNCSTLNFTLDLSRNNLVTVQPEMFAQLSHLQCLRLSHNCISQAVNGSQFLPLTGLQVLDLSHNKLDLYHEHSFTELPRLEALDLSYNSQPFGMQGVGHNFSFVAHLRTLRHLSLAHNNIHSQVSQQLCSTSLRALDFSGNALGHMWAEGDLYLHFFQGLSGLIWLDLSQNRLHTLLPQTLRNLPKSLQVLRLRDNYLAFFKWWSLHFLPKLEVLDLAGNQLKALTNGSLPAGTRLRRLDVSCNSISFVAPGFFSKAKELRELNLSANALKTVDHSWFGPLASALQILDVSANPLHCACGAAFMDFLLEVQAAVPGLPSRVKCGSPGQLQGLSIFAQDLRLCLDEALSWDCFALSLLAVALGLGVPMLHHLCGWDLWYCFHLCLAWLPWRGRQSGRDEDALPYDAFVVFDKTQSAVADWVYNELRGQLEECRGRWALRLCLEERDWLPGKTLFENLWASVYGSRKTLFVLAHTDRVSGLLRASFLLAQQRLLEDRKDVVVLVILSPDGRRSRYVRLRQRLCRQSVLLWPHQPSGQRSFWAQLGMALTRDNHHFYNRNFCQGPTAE
Method in brief: as §1

| Structure (SMILES) | pIC50 (human TLR8) | pIC50 (human TLR7) | pIC50 (human TLR9) |
| --- | --- | --- | --- |
| Cc1c(-c2[nH]c3sc(N4CC5(CN(CC6CCOCC6)C5)C4)nc3c2C(C)C)cn2ncnc2c1C [Example 301, 5-(7,8-dimethyl-[1,2,4]triazolo[1,5-a]pyridin-6-yl)-6-isopropyl-2-(6-((tetrahydro-2H-pyran-4-yl)methyl)-2,6-diazaspiro[3.3]heptan-2-yl)-4H-pyrrolo[3,2-d]thiazole] | 8.82 | 8.11 | 4.91 |
| Cc1c(-c2[nH]c3sc(N4CC5(CN(CCS(C)(=O)=O)C5)C4)nc3c2C(C)C)cn2ncnc2c1C [Example 304, 5-(7,8-dimethyl-[1,2,4]triazolo[1,5-a]pyridin-6-yl)-6-isopropyl-2-(6-(2-(methylsulfonyl)ethyl)-2,6-diazaspiro[3.3]heptan-2-yl)-4H-pyrrolo[3,2-d]thiazole] | 7.72 | 8.09 | 4.45 |
| Cc1c(-c2[nH]c3sc(N4CCNC[C@H]4C)nc3c2C(C)C)cn2ncnc2c1C [Example 308, (R)-5-(7,8-dimethyl-[1,2,4]triazolo[1,5-a]pyridin-6-yl)-6-isopropyl-2-(2-methylpiperazin-1-yl)-4H-pyrrolo[3,2-d]thiazole, HCl] | 10.05 | 9.74 | 4.80 |
| Cc1c(-c2[nH]c3sc(N4C[C@@H](C)NC[C@@H]4C)nc3c2C(C)C)cn2ncnc2c1C [Example 309, 5-(7,8-dimethyl-[1,2,4]triazolo[1,5-a]pyridin-6-yl)-2-((2S,5R)-2,5-dimethylpiperazin-1-yl)-6-isopropyl-4H-pyrrolo[3,2-d]thiazole] | 8.38 | 8.18 | 4.84 |
| Cc1c(-c2[nH]c3sc(N4CCN(CC5CCOCC5)C[C@H]4C)nc3c2C(C)C)cn2ncnc2c1C [Example 317, (R)-5-(7,8-dimethyl-[1,2,4]triazolo[1,5-a]pyridin-6-yl)-6-isopropyl-2-(2-methyl-4-((tetrahydro-2H-pyran-4-yl)methyl)piperazin-1-yl)-4H-pyrrolo[3,2-d]thiazole] | 8.37 | 8.02 | 4.35 |
| Cc1c(-c2[nH]c3sc(N4CCN(C5CCN(C(C)C)CC5)C[C@H]4C)nc3c2C(C)C)cn2ncnc2c1C [Example 324] | 8.65 | 8.16 | 5.20 |
| Cc1c(-c2[nH]c3sc(N4CCN(CC(C)(C)O)C[C@H]4C)nc3c2C(C)C)cn2ncnc2c1C [Example 325, (R)-1-(4-(5-(7,8-dimethyl-[1,2,4]triazolo[1,5-a]pyridin-6-yl)-6-isopropyl-4H-pyrrolo[3,2-d]thiazol-2-yl)-3-methylpiperazin-1-yl)-2-methylpropan-2-ol] | 9.72 | 7.72 | < 4.30 |

More lines, in order of rising pIC50 (human TLR8), values ahead:

| pIC50 (human TLR8) | pIC50 (human TLR7) | pIC50 (human TLR9) | Structure (SMILES) |
| --- | --- | --- | --- |
| 8.41 | 7.65 | < 4.30 | Cc1c(-c2[nH]c3sc(N4CCN(C5CCC5)C[C@H]4C)nc3c2C(C)C)cn2ncnc2c1C [Example 323] |
| 8.89 | 8.36 | 4.66 | CCN1CCN(c2nc3c(C(C)C)c(-c4cn5ncnc5c(C)c4C)[nH]c3s2)[C@H](C)C1 [Example 320, (R)-5-(7,8-dimethyl-[1,2,4]triazolo[1,5-a]pyridin-6-yl)-2-(4-ethyl-2-methylpiperazin-1-yl)-6-isopropyl-4H-pyrrolo[3,2-d]thiazole] |
| 9.03 | 8.10 | 4.58 | Cc1c(-c2[nH]c3sc(N4CC5(CN(CC(C)(C)O)C5)C4)nc3c2C(C)C)cn2ncnc2c1C [Example 303, 1-(6-(5-(7,8-dimethyl-[1,2,4]triazolo[1,5-a]pyridin-6-yl)-6-isopropyl-4H-pyrrolo[3,2-d]thiazol-2-yl)-2,6-diazaspiro[3.3]heptan-2-yl)-2-methylpropan-2-ol] |
| 9.08 | 8.21 | 4.67 | Cc1c(-c2[nH]c3sc(N4CCN(C5CCOCC5)C[C@H]4C)nc3c2C(C)C)cn2ncnc2c1C [Example 318, (R)-5-(7,8-dimethyl-[1,2,4]triazolo[1,5-a]pyridin-6-yl)-6-isopropyl-2-(2-methyl-4-(tetrahydro-2H-pyran-4-yl)piperazin-1-yl)-4H-pyrrolo[3,2-d] thiazole] |
| 9.28 | 8.42 | 4.71 | Cc1c(-c2[nH]c3sc(N4CCN(C)C[C@H]4C)nc3c2C(C)C)cn2ncnc2c1C [Example 319, (R)-5-(7,8-dimethyl-[1,2,4]triazolo[1,5-a]pyridin-6-yl)-2-(2,4-dimethylpiperazin-1-yl)-6-isopropyl-4H-pyrrolo[3,2-d]thiazole] |
| 9.37 | 8.84 | 4.72 | Cc1c(-c2[nH]c3sc(N4CCNC[C@@H]4C)nc3c2C(C)C)cn2ncnc2c1C [Example 310, (S)-5-(7,8-dimethyl-[1,2,4]triazolo[1,5-a]pyridin-6-yl)-6-isopropyl-2-(2-methylpiperazin-1-yl)-4H-pyrrolo[3,2-d]thiazole] |

Source: patent US20230139171A1 (SITA Information Networking Computing UK Limited, priority 2019, published 2023)
